Experimental data as given in PubChem BioAssay AID330 (DTP/NCI, 2004).
Where “and” joins values, the source holds several entries; their conditions need not be identical. Equal values may be shown once. Toxic doses and inconclusive results are not listed. The calls were made as follows: active = survival T/C of 150% or more; inactive = T/C below 125% in these data.

Test system: P388 leukemia ip, CD2F1 mice, survival T/C
Experiment: NCI In Vivo Anticancer Drug Screen. Data for tumor model P388 Leukemia (intraperitoneal) in CD2F1 (CDF1) mice
Details: endpoint: median survival time, higher = longer survival
Method in brief: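 Mice carrying the transplanted tumor received test compound or vehicle. Survival was recorded in each group, and the value is the treated-group measurement divided by that of the vehicle-treated control group.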

[1] = dose: 50.0 mg/kg/injection, schedule: Q01DX009 (ip), vehicle: saline
[2] = dose: 100.0 mg/kg/injection, schedule: Q01DX009 (ip), vehicle: saline
[3] = dose: 200.0 mg/kg/injection, schedule: Q01DX009 (ip), vehicle: saline
[4] = dose: 60.0 mg/kg/injection, schedule: Q01DX005 (ip), vehicle: Klucel (hydroxypropylcellulose) (HPC)
[5] = dose: 120.0 mg/kg/injection, schedule: Q01DX005 (ip), vehicle: Klucel (hydroxypropylcellulose) (HPC)
[6] = dose: 240.0 mg/kg/injection, schedule: Q01DX005 (ip), vehicle: Klucel (hydroxypropylcellulose) (HPC)
[7] = dose: 50.0 mg/kg/injection, schedule: Q01DX009 (ip), vehicle: saline with Tween-80
[8] = dose: 100.0 mg/kg/injection, schedule: Q01DX009 (ip), vehicle: saline with Tween-80
[9] = dose: 50.0 mg/kg/injection, schedule: Q01DX005 (ip), vehicle: Klucel (hydroxypropylcellulose) (HPC)
[10] = dose: 100.0 mg/kg/injection, schedule: Q01DX005 (ip), vehicle: Klucel (hydroxypropylcellulose) (HPC)
[11] = dose: 200.0 mg/kg/injection, schedule: Q01DX005 (ip), vehicle: Klucel (hydroxypropylcellulose) (HPC)

Measured: T/C

CN(C)B(N(C)C)N(C)C
inactive: dose: 60.0 mg/kg/injection, schedule: Q01DX005 (ip), vehicle: saline with Tween-80 101 % of control | dose: 120.0 mg/kg/injection, schedule: Q01DX005 (ip), vehicle: saline with Tween-80 102 % of control

CSCSCC(CO)NC(=O)C(Cl)Cl (stereo not given)
inactive: dose: 50.0 mg/kg/injection, schedule: Q01DX009 (ip), vehicle: water 102 % of control | dose: 200.0 mg/kg/injection, schedule: Q01DX009 (ip), vehicle: water 106 % of control | dose: 400.0 mg/kg/injection, schedule: Q01DX009 (ip), vehicle: water 113 % of control

O=C1OC(c2ccccc2)Sc2ccccc21 (stereo not given)
inactive: dose: 100.0 mg/kg/injection, schedule: Q01DX009 (ip), vehicle: Klucel (hydroxypropylcellulose) (HPC) 99 % of control | dose: 200.0 mg/kg/injection, schedule: Q01DX009 (ip), vehicle: Klucel (hydroxypropylcellulose) (HPC) 95 % of control | dose: 400.0 mg/kg/injection, schedule: Q01DX009 (ip), vehicle: Klucel (hydroxypropylcellulose) (HPC) 92 % of control

COc1ccc(/C(C)=N/OC(=O)c2sc3ccccc3c2Cl)cc1CN1CCOCC1
inactive: [1] 93 % of control | [2] 97 % of control | [3] 100 % of control

Clc1ccc(-c2csc3nc(-c4cccs4)nn23)cc1
inactive: dose: 30.0 mg/kg/injection, schedule: Q01DX005 (ip), vehicle: Klucel (hydroxypropylcellulose) (HPC) 97 % of control | [4] 95 % of control | [5] 95 % of control | [6] 93 % of control

O=C(Nc1cccc(C(F)(F)F)c1)c1cc2cc(Br)ccc2oc1=O
inactive: [4] 102 % of control | [5] 96 % of control | [6] 92 % of control

CN(C)CCCO[Si](C)(c1ccccc1)c1ccc(F)cc1 (stereo not given)
inactive: dose: 12.5 mg/kg/injection, schedule: Q01DX009 (ip), vehicle: saline with Tween-80 105 % of control | dose: 25.0 mg/kg/injection, schedule: Q01DX009 (ip), vehicle: saline with Tween-80 101 % of control | [7] 110 % of control and 97 % of control | [8] 86 % of control

COc1cc2oc3cc(OC)c(OC)c(CC=C(C)C)c3c(=O)c2c(O)c1CC=C(C)C
inactive: dose: 25.0 mg/kg/injection, schedule: Q01DX005 (ip), vehicle: Klucel (hydroxypropylcellulose) (HPC) 87 % of control | [9] 100 % of control | [10] 86 % of control and 97 % of control | [11] 105 % of control

CCCC(OC)=C(C(=O)OCC)C(=O)OCC
inactive: [1] 93 % of control | [2] 94 % of control | [3] 89 % of control

COc1ccc(/C=C\C(C)=N\NC(=S)Nc2ccc(Cl)cc2)cc1
inactive: dose: 100.0 mg/kg/injection, schedule: Q01DX001 (ip), vehicle: Klucel (hydroxypropylcellulose) (HPC) 103 % of control | dose: 200.0 mg/kg/injection, schedule: Q01DX001 (ip), vehicle: Klucel (hydroxypropylcellulose) (HPC) 102 % of control | dose: 400.0 mg/kg/injection, schedule: Q01DX001 (ip), vehicle: Klucel (hydroxypropylcellulose) (HPC) 103 % of control

CC(=O)Oc1ccccc1C#CC(=O)O
inactive: [7] 96 % of control | [8] 90 % of control | dose: 200.0 mg/kg/injection, schedule: Q01DX009 (ip), vehicle: saline with Tween-80 94 % of control

Clc1ncnc2n[nH]c(Br)c12
inactive: dose: 100.0 mg/kg/injection, schedule: Q04DX002 (ip), vehicle: water 108 % of control | dose: 200.0 mg/kg/injection, schedule: Q04DX002 (ip), vehicle: water 116 % of control | dose: 400.0 mg/kg/injection, schedule: Q04DX002 (ip), vehicle: water 107 % of control

CC(=O)/C=C/C=C/c1ccc2c(c1)OC(CO)C(c1ccc(O)c(O)c1)O2 (stereo not given)
inactive: [9] 95 % of control | [10] 90 % of control and 95 % of control | [11] 87 % of control | dose: 400.0 mg/kg/injection, schedule: Q01DX005 (ip), vehicle: Klucel (hydroxypropylcellulose) (HPC) 87 % of control

OCC(COCCCCCCCCCCCCCC1C=CCC1)OCCCCCCCCCCCCCC1C=CCC1 (stereo not given)
inactive: dose: 100.0 mg/kg/injection, schedule: Q04DX003 (ip), vehicle: saline 96 % of control | dose: 200.0 mg/kg/injection, schedule: Q04DX003 (ip), vehicle: saline 89 % of control | dose: 400.0 mg/kg/injection, schedule: Q04DX003 (ip), vehicle: saline 93 % of control
